Measured values published in US10398689B2, “Benzopiperidine derivative, preparation method thereof and medical use thereof” (Jiangsu Hengrui Medicine Co., Ltd., priority 2015, dated 2019).

Experiments:
MCF7 cells = assay: Inhibition of the proliferation of MCF7 cells (Cell Titer-Glo); type: cell-based; details: Homo sapiens, MCF-7 cells, 72 hours, read-out: IC50 value of inhibition effect on the proliferation of MCF7 cells
Procedure: The object of this experiment was to determine the inhibition effect of the compounds on the proliferation activity of MCF7 cells, and the in vitro activity of the compounds was evaluated according to the IC50 values.
MCF-7 cells (Cell Bank of Chinese Academy of Sciences typical culture preservation Committee, TChu 74) were inoculated into the MEM medium (Hyclone, SH30024.01B) containing 10% FBS (Gibco, 10099-141), 1% sodium pyruvate (Sigma, S8636), and 1% nonessential amino acids (Sigma, M7145) in a 96-well plate with a density of 40,000 cells/well, and the cells were incubated under the conditions of 37° C., and 5% CO2. The compound was prepared as a 20 mM stock solution that was later diluted to 1000× final concentration with 100% DMSO, and then diluted with 20-fold medium containing 2% FBS. After incubation for 24 hours, the medium was removed and 90 μl of the medium containing 2% FBS and 10 μl of the drug were added to each well, 10 […] of DMSO was added to the control group, and the blank group contained only 100 μl medium containing 2% FBS. The plate was gently shaken and incubated in a incubator at 37° C., 5% CO2. After 72 hours later, 50 μl of mixed Cell Titer-Glo (Promega, G7571) was added to each well. The plate was shaken until the ingredients were mixed uniformly, and placed at room temperature for 10 minutes, then the chemiluminescence signal value was determined. The inhibition effect of the compound AZD9496 at 100 nM on the proliferation of MCF-7 cells was set to 100%, the maximum inhibition rate of other compounds=(chemiluminescence signal valuenegative control−chemiluminescence signal valuecompound 100 nm)/(chemiluminescence signal valuenegative control−chemiluminescence signal valueAZD9496 100 nm)×100%, and the negative control was a well with 0.5% DMSO.
The values of the chemiluminescence signals vs the logarithmic concentrations of the compounds were plotted using Graghpad Prism to obtain the IC50 values.

ERα = molecular target: T1, ERα (Homo sapiens, UniProt P03372); assay: Degradation effect on ERα in MCF-7 cells (ERα Duoset ELISA); type: cell-based; details: MCF7; compound at 3 μM, relative to positive control AZD-9496 at 3 μM set to 100%
T1 construct: host or cells: MCF-7
T1 sequence (P03372 1-595): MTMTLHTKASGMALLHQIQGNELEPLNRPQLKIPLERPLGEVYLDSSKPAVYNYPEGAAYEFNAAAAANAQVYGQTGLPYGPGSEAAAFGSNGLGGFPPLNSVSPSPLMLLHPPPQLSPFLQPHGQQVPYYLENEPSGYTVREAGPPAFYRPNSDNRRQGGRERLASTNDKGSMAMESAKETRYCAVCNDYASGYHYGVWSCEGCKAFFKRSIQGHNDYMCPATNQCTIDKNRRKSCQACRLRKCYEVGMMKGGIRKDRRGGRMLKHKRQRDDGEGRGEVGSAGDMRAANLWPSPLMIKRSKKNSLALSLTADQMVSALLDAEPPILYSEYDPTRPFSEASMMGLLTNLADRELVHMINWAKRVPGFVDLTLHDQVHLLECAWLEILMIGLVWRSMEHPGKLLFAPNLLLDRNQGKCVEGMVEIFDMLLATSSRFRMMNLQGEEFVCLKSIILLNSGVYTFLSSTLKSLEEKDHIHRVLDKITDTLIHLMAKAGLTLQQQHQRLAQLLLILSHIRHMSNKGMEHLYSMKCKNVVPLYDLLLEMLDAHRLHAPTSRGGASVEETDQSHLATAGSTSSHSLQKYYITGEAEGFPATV
Procedure: In order to determine the degradation effect on ER induced by the compound of present invention, the following method was used to determine the degradation effect of the compounds of the present invention on ER.
MCF-7 cell line (TChu 74, Cell Bank of Chinese Academy of Sciences typical culture preservation Committee)
ERα Duoset Kit (#DYC5715E, R&D System)
MCF-7 cells well incubated in DMEM/F-12 medium containing 10% FBS.
On the first day of the experiment, MCF-7 cells were resuspended in DMEM/F-12 medium containing 10% FBS treated by activated carbon, then inoculated into a 48-well plate with a density of 50,000 cells/well and incubated for 22-24 hours.
On the second day of the experiment, the test compound was diluted with medium and added to a 48-well plate. The ERα-capture antibody was diluted to 1 μg/ml with PBS, and added with 100 μl/well to a 96-well plate at 100 μl/well. The plate was sealed and coated overnight at room temperature.
On the third day of the experiment, the coated 96-well plate was washed twice with PBS, added with a sealing solution (1% BSA in PBS) at 110 μl/well and sealed for 1 hour at room temperature. The 48-well plate was washed once and the residual liquid was removed. Then, 60 μl of lysis buffer (6 M urea, 1 mM EDTA, 0.5% Triton X-100, 1 mM PMSF, Protease Inhibitor cocktail) was added to each well. After lysis on ice for 15 minutes, the diluent (1 mM EDTA, 0.5% TritonX-100 dissolved in PBS) was added. The cell-diluted lysate was transferred to a 96-well plate at 100 μl/well, then the plate was incubated at room temperature for 2 hours. The diluted primary antibody was added after the plate was washed 4 times with a washing liquid (PBST). After incubation for 1 hour, the 96-well plate was washed 4 times, and the second antibody was added, then the plate was incubated for 30 minutes. After the plate was washed with a washing liquid, TMB chromogenic solution was added and incubated for 15 minutes. The reaction was stopped by the addition of 1 M H2SO4, then the light absorption at a wavelength of 450 nm was read. The degradation effect of the compound AZD9496 at 3 μM was set to 100%, the Emax of other compounds=(ODnegative control−ODcompound 3 μM)/(ODnegative control−ODAZD9496 3 μM)×100%, and the negative control was a well with DMSO.

ER (estrogen receptor) = molecular target: T2, ER (estrogen receptor) (Homo sapiens, UniProt P03372); assay: Inhibition of the binding of estrogen (E) to estrogen receptor (ER), MCF-7/ERE-luciferase reporter cells; type: cell-based; details: MCF-7/ERE-luciferase cells, 0.1 nM estradiol, 24 hours, chemiluminescence; read-out: IC50 value of inhibition effect on the binding of E to ER
T2 construct: MCF-7/ERE-luciferase monoclonal cells were selected by transfection of MCF-7; host or cells: MCF-7/ERE-luciferase (only the ERE-luciferase reporter was transfected)
T2 sequence (P03372 1-595): T1 sequence (P03372 1-595)
Procedure: The compounds of the present invention have an inhibition effect on the binding of E (estrogen) to ER (estrogen receptor), thereby blocking the binding of a complex of E and ER complex to ERE (estrogen responsive element), and subsequently blocking the expression of downstream luciferase protein.
The inhibition effect of the compounds on the binding of E to ER in vitro was tested by the following method.
The object of this experiment was to determine the inhibition effect of the compounds on the binding of E to ER, and the in vitro activity of the compounds was evaluated according to the IC50 values.
ERE was cloned into the upstream of the luciferase gene, and MCF-7/ERE-luciferase monoclonal cells were selected by transfection of MCF-7 (Cell Bank of Chinese Academy of Sciences typical culture preservation Committee, TCHu74). MCF-7/ERE-luciferase cells were inoculated into the MEM medium (hyclone, SH30024.01B) containing 10% charcoal stripped FBS (Moregate, FBSF), 1% sodium pyruvate (Sigma, S8636), 1% nonessential amino acids (Sigma, M7145) and 500 μg/ml G418 in a 96-well plates with a density of 30,000 cells/well, and the cells were incubated under the conditions of 37° C., and 5% CO2. The drug was prepared as a 20 mM stock solution that was later diluted with 100% DMSO in 10 fold concentration gradient, and then diluted 20-fold with the medium DMEM. After incubation for 24 hours, the medium was removed, then 0.1 nM estradiol (Sigma, E2758) and 10 μl of the drug diluted with the medium were added to each well, and the control group was added with DMSO. The plate was gently shaken and incubated in a incubator at 37° C., 5% CO2. After 24 hours, the cell culture medium was discarded, Then, 50 μl of the prepared luciferase substrate (Promega, E6110) was added to each well, and the plate was placed in the dark at room temperature for 10-15 minutes, then the chemiluminescence signal value was determined.
The inhibition effect of the compounds of the present invention on the binding of E to ER was tested by the experiment described above. The values of the chemiluminescence signal vs the logarithmic concentrations of the compounds were plotted using Graphpad Prism, and the measured IC50 values are shown in Table 1.

[1] = Pharmacokinetics assay in BALB/C nude mice after intragastrical administration; type: in vivo; details: female, mouse, po, 3 mg/kg, plasma; for Vd/F: read-out: Apparent Distribution Volume Vz/F; for AUC: read-out: Area Under Curve AUC; for CL/F: read-out: Clearance CL/F; for half-life: read-out: Half-Life t1/2 (converted); for MRT: read-out: Mean Residence Time MRT; for Cmax: read-out: Plasma Conc. Cmax
Procedure: BALB/C nude mice were used as test animals. The drug concentration in plasma at different time points was determined by LC/MS/MS after intragastrical administration of the compounds of Examples 1, 7, 8, 10, 11, 14, 16, 39 and 42 to BALB/C nude mice. The pharmacokinetic behavior of the compounds of the compounds of the present invention was studied and evaluated in BALB/C nude mice.
Eighty-one (81) female BALB/C nude mice, were equally divided into 9 groups, which were purchased from SINO-BRITSH SIPPR/BK LAB. ANIMAL LTD., CO, with Certificate No.: SOCK (Shanghai) 2008-0016.
The appropriate amount of each test compound was weighed, and successively added with 9% PEG400+0.5% tween 80+0.5% PVP+90% aqueous solution of 0.5% CMC.
After an overnight fasting, 81 female BALB/C nude mice were equally divided into 9 groups; and administered the test compounds intragastrically at an administration volume of 0.2 mL/10 g.
81 female Balb/C nude mice were administered the test compounds intragastrically after an overnight fasting. Blood (0.1 mL) was taken (3 animals at each time point) at 0.5, 1.0, 2.0, 4.0, 6.0, 8.0, 11.0, and 24.0 h after administration. The samples were stored in heparinized test tubes, and centrifuged for 10 minutes at 3,500 rpm to separate the blood plasma. The plasma samples were stored at −20° C.
The concentration of the prototype drug in the plasma and in the solution to be administered was determined by liquid chromatography tandem mass spectrometry (LC/MS MS).

Compound | IC50 (MCF7 cells) | Emax at 3 µM (ERα) | IC50 (ER (estrogen receptor)) | Vd/F [1] | AUC [1] | CL/F [1] | half-life [1] | MRT [1] | Cmax [1]
CC1Cc2cc(-c3cnn(C)c3)ccc2C(c2c(F)cc(/C=C/C(=O)O)cc2F)N1c1ccc(C2CC2)cc1 [Example 4, (E)-3-(4-((1S,3R/1R,3S)-2-(4-Cyclopropylphenyl)-3-methyl-6-(1-methyl-1H-pyrazol-4-yl)-1,2,3,4-tetrahydroisoquinolin-1-yl)-3,5-difluorophenyl)acrylic acid] | 0.42 nM | 136% | 0.27 nM | – | – | – | – | – | –
CC(C)c1ccc(N2C(C)Cc3cc(-c4cnn(C)c4)ccc3C2c2ccc(/C=C/C(=O)O)cc2)cc1 [Example 16, (E)-3-(4-((1R,3R/1S,3S)-2-(4-Isopropylphenyl)-3-methyl-6-(1-methyl-1H-pyrazol-4-yl)-1,2,3,4-tetrahydroisoquinolin-1-yl)phenyl)acrylic acid] | 0.93 nM | – | 2.15 nM | 1.43 L/kg | 9120 ng·h/mL | 5.48 mL/min/kg | 3.01 h | 4.87 h | 1560 ng/mL
CC1Cc2cc(-c3cnn(C)c3)ccc2C(c2ccc(/C=C/C(=O)O)cc2)N1c1ccc(C2CC2)cc1 [Example 10, (E)-3-(4-((1R,3R/1S,3S)-2-(4-Cyclopropylphenyl)-3-methyl-6-(1-methyl-1H-pyrazol-4-yl)-1,2,3,4-tetrahydroisoquinolin-1-yl)phenyl)acrylic acid] | 0.3 nM | – | 1.07 nM | 3.18 L/kg | 6280 ng·h/mL | 7.96 mL/min/kg | 4.61 h | 7.08 h | 1070 ng/mL
CC(C)c1ccc(N2[C@@H](c3c(F)cc(/C=C/C(=O)O)cc3F)c3ccc(-c4cnn(C)c4)cc3C[C@@H]2C)cc1 (racemic) [Example 40, (E)-3-(3,5-Difluoro-4-((1S,3R/1R,3S)-2-(4-isopropylphenyl)-3-methyl-6-(1-methyl-1H-pyrazol-4-yl)-1,2,3,4-tetrahydroisoquinolin-1-yl)phenyl)acrylic acid] | 0.23 nM | 115% | 0.6 nM | – | – | – | – | – | –

Second part, the compound after the results:

IC50 (MCF7 cells) | Emax at 3 µM (ERα) | IC50 (ER (estrogen receptor)) | Vd/F [1] | AUC [1] | CL/F [1] | half-life [1] | MRT [1] | Cmax [1] | Compound
0.4 nM | 114% | 1.71 nM | – | – | – | – | – | – | CCc1ccc(N2[C@H](c3ccc(/C=C/C(=O)O)cc3)c3ccc(-c4cnn(C)c4)cc3C[C@H]2C)cc1 [Example 2, (E)-3-(4-((1R,3R)-2-(4-Ethylphenyl)-3-methyl-6-(1-methyl-1H-pyrazol-4-yl)-1,2,3,4-tetrahydroisoquinolin-1-yl)phenyl)acrylic acid]
0.65 nM | 111% | 1.42 nM | – | – | – | – | – | – | COc1ccc(N2C(C)Cc3cc(-c4cnn(C)c4)ccc3C2c2ccc(/C=C/C(=O)O)cc2)cc1 [Example 46, (E)-3-(4-((1R,3R/1S,3S)-2-(4-Methoxyphenyl)-3-methyl-6-(1-methyl-1H-pyrazol-4-yl)-1,2,3,4-tetrahydroisoquinolin-1-yl)phenyl)acrylic acid]
